Test results published in US20240043860A1, “NOVEL HYDROXYPHENYLPYRUVATE DIOXYGENASE POLYPEPTIDES AND METHODS OF USE THEREOF” (Syngenta Crop Protection AG, priority 2020, published 2024).
pIC50: −log10 of the molar value.

Tests used:
[1] = molecular target: HPPD variant AVESA V200 (SEQ ID NO: 5) (Avena sativa, UniProt A0ACD5V6K6, A327R/I340E/L359M/V218I/V260A); assay: biochemical
Procedure: 25 ul of the overnight cultures were inoculated into fresh 96-deepwell block containing 1 ml Formedium Autoinduction Media (AIM). The AIM cultures were grown for 3h at 37° C. (900rpm) and then transferred to 20° C. overnight (900rpm) to allow protein expression. The overnight cultures were centrifuged and 500 ul of Cellytic B (Sigma Aldrich) was added to resuspend the cell pellets. The coupled HGO assay (Siehl et al, 2014) is used to generate IC50 values for the HPPD variants of interest.
E. coli BL21 (DE3) cells were transformed with a pET24a vector containing a C-terminally his-tagged Arabidopsis HGO gene, grown and induced overnight as described for the HPPD variants above. […]
The coupled HGO assay is carried out by adding 10 ul of HPPD extract to a 96-well plate and then adding 40 ul of reaction buffer (50 mM Bis Tris Propane, pH7.0, 25 mM sodium-L-ascorbate, 400μM mercaptoethanol, 50 μM Fe(II)SO4). […] 200 ul of HPP/HGO (197 μM hydroxyphenylpyruvic acid, 16 μl/ml Homogentisic Acid Oxidase in reaction buffer as described above) buffer is then added to the well and the reaction is regularly monitored (e.g. every 30 seconds-5 minutes) for absorbance at 330 nm for a given time period (e.g., for between 15-60 minutes). […]

[2] = system: transgenic tobacco plants expressing mutant HPPD SEQ ID NO: 14; assay: spray test, herbicidal damage scoring; assay type: in vivo
Procedure: Avena sativa HPPD or orthologues and variants thereof, for example SEQ IDs 1-63 and 122-127, were expressed in transgenic tobacco. DNA sequences that encode these polypeptides (optimized for tobacco or, optionally, codon optimized according to a target crop such as soybean) were prepared synthetically. Each sequence was designed to include a 5′ fusion with TMV omega 5′ leader sequence such that they are flanked at the 5′ end with XhoI and at the 3′ end with KpnI to facilitate direct cloning into a suitable binary vector for Agrobacterium-based plant transformation.
In one example, the TMV omega 5′ leader and a HPPD encoding gene of interest is excised using XhoI/KpnI and cloned into similarly digested binary vector pBIN 19 (Bevan, Nucl. Acids Res. (1984) behind a double enhanced 35S promoter ahead of a NOS 3′ transcription terminator and then transformed into E. coli DH5 alpha competent cells. DNA recovered from the E. coli is used to transform Agrobacterium tumefaciens LBA4404, and transformed bacteria are selected on media contain rifampicin and kanamycin. Tobacco tissue is subjected to Agrobacterium-mediated transformation using methods well described in the art or as described herein. For example, a master plate of Agrobacterium tumefaciens containing the HPPD expressing the binary vector is used to inoculate 10 ml LB (L broth) containing 100 mg/l Rifampicin plus 50 mg/l Kanamycin using a single bacterial colony. This is incubated overnight at 28° C. shaking at 200 rpm. This entire overnight culture is used to inoculate a 50 ml volume of LB containing the same antibiotics. Again this is cultured overnight at 28° C. shaking at 200 rpm. The Agrobacterium cells are pelleted by centrifuging at 3000 rpm for 15 minutes and then resuspended in MS (Murashige and Skoog) medium containing 30 g/l sucrose, pH 5.9 to an OD […]=0.6. This suspension is dispensed in 25 ml aliquots into petri dishes.
Once rooted, plantlets are transferred from agar and potted into 50% peat, 50% John Innes Soil No. 3 or, for example, MetroMix® 380 soil (Sun Gro Horticulture, Bellevue, WA) with slow-release fertilizer in 3 inch round or 4 inch square pots and left regularly watered to establish for 8-12d in the glass house. Glass house conditions are about 24-27° C. day; 18-21° C. night and approximately a 14h (or longer in UK summer) photoperiod. Humidity is adjusted to ˜65% and light levels used are up to 2000 umol/m^2 at bench level. Once new tissue emerged and plants reach the 2-4 leaf stage, some of the clones from each event are sprayed with an HPPD inhibitor of interest selected from the herbicides listed in reference to Example 1. […] For example Callisto® is mixed in water with 0.2-0.25% X-77 surfactant and sprayed from a boom on a suitable track sprayer moving at 2 mph in a DeVries spray chamber (Hollandale, MN) with the nozzle about 2 inches from the plant tops.
Plants are assessed for damage and scored at, for example, 7 and 14 days after treatment (DAT). About 20-30 TO events are produced for a number of HPPD variant genes.
Plants of events showing the least damage are grown to flowering, then bagged and allowed to self. […] Single copy events amongst the Ti plant lines are identified by their 3:1 segregation ratio (with respect to kanamycin and/or herbicide) and by quantitative RT-PCR. Seed from the thus selected Ti tobacco (var. Samsun) lines are sown in 3 inch diameter pots containing 50% peat and 50% John Innes Soil No. 3. After growth to the 3 leaf stage, plants are sprayed as described above in order to test for herbicide tolerance relative to like-treated non-transgenic tobacco plants, and also in comparison with like-treated Ti plants expressing the base HPPD SEQ IDs 122-125. HPPD expression levels were monitored by Western analysis. […]

Sequence of HPPD variant AVESA V200 (SEQ ID NO: 5) (A0ACD5V6K6 entry or part of it V218I/V260A/A327R/I340E/L359M): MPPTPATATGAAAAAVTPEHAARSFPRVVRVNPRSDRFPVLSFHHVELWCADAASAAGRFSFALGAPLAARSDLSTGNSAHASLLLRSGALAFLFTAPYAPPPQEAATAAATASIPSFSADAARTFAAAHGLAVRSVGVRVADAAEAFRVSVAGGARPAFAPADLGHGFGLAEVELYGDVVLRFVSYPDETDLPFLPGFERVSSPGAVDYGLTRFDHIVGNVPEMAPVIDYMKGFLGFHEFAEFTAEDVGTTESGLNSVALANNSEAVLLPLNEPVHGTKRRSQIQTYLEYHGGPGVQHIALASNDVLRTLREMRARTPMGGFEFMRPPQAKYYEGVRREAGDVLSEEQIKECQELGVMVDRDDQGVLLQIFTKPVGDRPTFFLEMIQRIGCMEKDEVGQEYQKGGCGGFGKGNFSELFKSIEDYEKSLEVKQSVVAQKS

Q: `Cn1nnnc1NC(=O)c1ccc(C(F)(F)F)nc1-n1cncn1` [Herbicide D, N-(1-methyltetrazol-5-yl)-2-(1,2,4-triazol-1-yl)-6-(trifluoromethyl)pyridine-3-carboxamide] was tested. Which pIC50 [1] did it give?
A: Its pIC50 is 4.20.

Q: With `COc1ccc(-n2nc(C)cc(C(=O)C3C(=O)CCCC3=O)c2=O)cc1OC` [Herbicide C, dioxopyritrione] as the molecule, how does the damage ([2]; 200 g/ha, SEQ ID 14 plants compared to plants expressing SEQ IDs 122, 124 or 125) read?
A: Its damage is “reduced damage”.

Q: What about the stunting ([2]; FIG. 4, 300 ai/ha, SEQ ID NO: 14 plants compared to plants expressing the wild-type HPPD (SEQ ID NO: 1)) of the same molecule?
A: Its stunting is “significantly reduced stunting”.

Q: And the chlorosis ([2]; FIG. 4, 300 ai/ha, some multi-copy events expressing SEQ ID NO: 14)?
A: Its chlorosis is “Almost no chlorosis”.

Q: What about the “chlorosis (yellowing of leaf tissue)” value ([2]; FIG. 5, 50 g/ha, SEQ ID NO: 14 plants compared to plants expressing SEQ ID NO: 122 or SEQ ID NO: 17) of the same molecule?
A: Its value is “significantly reduced chlorosis”.

Q: And the “tolerance in comparison to SEQ ID NO: 122” value ([2]; many lines expressing SEQ ID NO: 14, 100 g/ha (Table 3.1))?
A: The value was “significantly improved tolerance”.

Q: And the damage ([2]; several lines expressing SEQ ID NO: 14, 100 g/ha (Table 3.1))?
A: Its damage is “less than 10%”.
